B1: RmELA: amidohydrolase native to Rhodothermus marinus (NCBI; WP_012844854.1, SEQ ID NO: 1), Nε-acyl-L-lysine-specific aminoacylase (protein, listed as Rhodothermus marinus)
chain: MLLLPMQARGQADYVLVNGRLYTVDPAQPVAEAMAVRGDRILMVGTTAQLTAAYPDAPHIDLQGRAVVPGFIDAHAHLMGLGLSRLRADLTGTRSVEEILERLREFARQLPEGAWLLGRGWDQNDWPVKEFPTRQMLDEIFPERPVWLVRIDGHAAWANTAAIRRANPALLTEQIPDPEGGHIVRDAEGRLTGVFIDEAMDLIARHIPPPSEAELEEALRRAVAEANRFGLTGVHDAGASLKTIQGYRRAVDDGTLTLRLYVMVDGLGEAFDYFCEHGPLLDYGGRLTVRSVKFYIDGALGSRGAALLADYSDDPGNRGLLRHEPEVFADMVQRAMKCGFQVNTHAIGDRGVRVVLDAYEKALRTLGRTVGRHRVEHAQVVAPEDFARFAELDLIASMQPTHATSDMYWAEDRLGPERVRGAYAWRTFLEHGVRLAFGSDFPVELANPLLGFYAAITRQDAEGWPEGGWYPEQRLTREEALRAFTLDAAYAAFQEHELGSLTPGKYADFVVLSHDIMTVPPEQILQTRVLATFFGGRCVYHDPEAAGLCPASP

Columns and labels:
RmELA = assay: Acyl lysine hydrolysis (substrate specificity of purified RmELA); assay type: biochemical, Rhodothermus marinus; conditions: for hydrolysis (degradation) activity of the enzyme for the acyl lysine, in words: 4 mM substrate, pH 7.0, 37° C.; for Hydrolysis activity: acyl lysine 4 mM, 100 mM Tris-HCl (pH 7.0), 37° C., 1 U = 1 μmol lysine per 1 minute
Description: To look into the substrate specificity of the acyl lysine hydrolysis of this enzyme, the reactivity of the enzyme as described herein for various kinds of acyl lysines was examined. […] Activity measurement was performed with the various kinds of acyl lysines (4 mM) and 100 mM Tris-HCl (pH 7.0) at 37° C., and the activity was calculated by measuring the concentration of lysine produced along with the degradation of the acyl lysines. For the measurement of L-lysine, BF-5 and a lysine electrode (manufactured by Oji Scientific Instruments Co., Ltd.) was used, whereas for the measurement of D-lysine, an amino acid analyzer (manufactured by Hitachi, Ltd.) was used. Here, 1 U was defined as an enzyme amount that releases 1 μmol lysine from each of the acyl lysines (per 1 minute).

[1] = Storage stability of enzymatic solutions; assay type: biochemical; conditions: stored at 4° C., 15° C. and 25° C.
Description: A culture solution of the C. glutamicum expression strain of RmELA acquired by the method described in Example 1, 1-6) was centrifuged to collect the supernatant, which was membrane-sterilized with a 0.45 μm filter to obtain an RmELA enzymatic solution. A WDK010/pPKT-tatABC strain (WO 2010/067871) as a C. glutamicum expression strain of ELA native to Streptomyces mobarensis (SmELA) was cultured and sterilized by a similar procedure to obtain an SmELA enzymatic solution.
These enzymatic solutions were stored at temperatures of 4° C., 15° C., and 25° C., and the transition of enzyme activity was examined. The activity was represented as relative activity (%) with the activity value when the storage started as 100.

Optimum pH of the enzyme = assay type: biochemical; conditions: 37° C., acetate, Tris-HCl and borate buffers, pH 4.2 to 9.8
Description: Using the purified enzyme acquired by the method described in Example 3, the optimum pH and pH stability of the enzyme with Nε-acetyl-L-lysine as a substrate were examined.
Using various kinds of buffers (pH 4.2 to 6.0: acetate buffers, pH 7.2 to 8.8: Tris-HCl buffers, and pH 9.3 to 9.8: borate buffers) at 37° C., activity at various pH was measured. The activity was represented as relative activity (%) with the maximum activity value as 100. The optimum pH of this enzyme was pH 5.0.

[2] = assay type: biochemical; conditions: incubated at 30° C. to 100° C. for 1 hour
Description: Using the purified enzyme acquired by the method described in Example 3, the optimum reaction temperature and temperature stability of the enzyme with Nε-acetyl-L-lysine as a substrate were examined.
Subsequently, remaining activity after being incubated at certain temperatures (30° C. to 100° C.) for 1 hour was measured. The activity was represented as relative activity (%) with the activity value before the incubation as 100.

[3] = Enzyme activity after heat sterilization of the culture solution; assay type: biochemical; conditions: 75° C. for 30 minutes
Description: Whether a C. glutamicum expression strain of RmELA could be sterilized with heat while maintaining the enzyme activity was examined. The culture solution acquired by the method described in Example 1, 1-6) in an amount of 150 μl was dispensed to a PCR tube and was subjected to heat treatment at 75° C. for 30 minutes using a block heater to obtain a heat treatment culture solution. The heat treatment culture solution and the heat treatment culture solution serially diluted (with a dilution rate of ×10^2) with a physiological saline solution (0.85% of NaCl) were applied to a CM2G agar medium (10 g of a yeast extract, 10 g of polypeptone, 5 g of glucose, 5 g of sodium chloride, 0.2 g of DL-methionine, 15 g of agar, pH 7.2, and filled up to 1 L with water) containing 25 mg/l of kanamycin, and the number of formed colonies was counted to examine the number of living bacteria of the RmELA expression strain. As a result, no colony formation was detected. […] When a culture solution without the heat treatment was examined by the same method, the number of living bacteria was 7.0×10^10 cfu/ml.
Subsequently, the culture solution and the heat treatment culture solution explained above were centrifuged individually, the supernatants were collected, and the hydrolysis activity of Nε-acetyl-L-lysine within the supernatants was measured.

[4] = Synthesis reaction of Nε-octanoyl-L-lysine by RmELA enzymatic solution, L-lysine consumption; assay type: biochemical
Description: Using the RmELA enzymatic solution prepared by the method described in Example 7, the synthesis reaction of Nε-octanoyl-L-lysine was carried out. A 100 ml of a reaction solution was prepared so as to give final concentrations of 300 mmol/L octanoic acid, 300 mmol/L L-lysine hydrochloride, 0.1 mmol/L ZnSO4, and 2.1 U/ml the RmELA enzymatic solution and was stirred at 300 rpm using a 200 ml jar fermenter. The pH was adjusted to be 7.0 using 1 N of NaOH, and the reaction temperature was adjusted to be 50° C.
During the reaction, the reaction solution was sampled over time, and an L-lysine concentration within the reaction solution was measured. […] When the reaction solution after 23 hours was analyzed by HPLC, Nε-octanoyl-L-lysine was produced by 80% in terms of yield relative to L-lysine. […] No peak of Nα-octanoyl-L-lysine was detected.
The substrate (octanoic acid and L-lysine hydrochloride) final concentration in the reaction condition was changed to (1) 500 mmol/L, (2) 750 mmol/L, and (3) 1,000 mmol/L to carry out the synthesis reaction of Nε-octanoyl-L-lysine.
During the reaction, the reaction solution was sampled over time, and an L-lysine concentration in the reaction solution was measured. […] Respective consumption rates relative to the charged L-lysine and reaction times were (1) 87% after 35 hours, (2) 92% after 35 hours, and (3) 94% after 57 hours.

[5] = Synthesis reaction of Nε-dodecanoyl-L-lysine, L-lysine consumption; assay type: biochemical; conditions: 300 mmol/L substrates, 3 U/ml, after 24 hours
Description: Using the RmELA enzymatic solution prepared by the method described in Example 7, the synthesis reaction of Nε-dodecanoyl-L-lysine was carried out. A 200 ml of a reaction solution was prepared so as to give final concentrations of 300 mmol/L dodecanoic acid, 300 mmol/L L-lysine hydrochloride, 0.1 mmol/L ZnSO4, 10% methanol, and 3 U/ml the RmELA enzymatic solution and was stirred at 300 rpm using a 500 ml jar fermenter. The pH was adjusted to be 7.0 using 1 N of NaOH, and the reaction temperature was adjusted to be 55° C.
Nα-dodecanoyl-L-lysine was produced by only 0.06% in terms of yield relative to L-lysine.
For the measurement of lysine, BF-5 and a lysine electrode (manufactured by Oji Scientific Instruments Co., Ltd.) were used. The HPLC analysis was performed with Column YMC-UltraHT Pro C18, 50×2.0 mm I.D. (manufactured by YMC Co., Ltd.), a mobile layer of NaH2PO4 (pH 3.0)/MeOH=3/7, and UV 210 nm.
When the reaction pH was changed from pH 7.0 to pH 6.0, and the synthesis reaction of Nε-dodecanoyl-L-lysine was carried out by a method similar to the above, 96% of the charged L-lysine was consumed after 24 hours (FIG. 7). […] At pH 7.0, dodecanoic acid in the reaction solution was emulsified to give a high viscosity solution. […]

| Molecule | hydrolysis (degradation) activity of the enzyme for the acyl lysine, in words (RmELA) | Hydrolysis activity (RmELA) [U/mg] | further results |
| --- | --- | --- | --- |
| CC(=O)N[C@@H](CCCCN)C(=O)O [Nα-Acetyl-L-Lys, Nα-acetyl-L-lysine] | did not exhibit hydrolysis activity | 0.0 |  |
| NCCCC[C@H](NC(=O)c1ccccc1)C(=O)O [Nα-Benzoyl-L-Lys, Nα-benzoyl-L-lysine] | did not exhibit hydrolysis activity | 0.0 |  |
| N[C@@H](CCCCNC(=O)[C@@H](N)CCC(=O)O)C(=O)O [Nε-(αGlu)-L-Lys] |  | 36.8 |  |
| N[C@@H](CCCCNC(=O)CC[C@H](N)C(=O)O)C(=O)O [Nε-(γGlu)-L-Lys] |  | 41.3 |  |
| CC(=O)NCCCC[C@@H](N)C(=O)O [Nε-Acetyl-D-Lys, Nε-acetyl-D-lysine] | did not exhibit hydrolysis activity | 0.0 |  |
| CC(=O)NCCCC[C@H](N)C(=O)O [Nε-Acetyl-L-Lys, Nε-acetyl-L-lysine] | exhibited degradation activity | 17.5 |  |
| N[C@@H](CCCCNC(=O)c1ccccc1)C(=O)O [Nε-Benzoyl-L-Lys, Nε-benzoyl-L-lysine] | exhibited degradation activity | 90.1 |  |
| B1 |  |  | transition of enzyme activity during storage [1]: did not decrease in enzyme activity; optimum pH (Optimum pH of the enzyme): 5.0; optimum pH (Optimum pH of the enzyme; listed as protein having the amino acid sequence of SEQ ID NO: 1): about 5; temperature up to which no decrease in activity was shown [2]: up to 80 °C; enzyme activity after heat treatment [3]: no decrease in enzyme activity; charged L-lysine consumed ([4]; 300 mmol/L substrates, 2.1 U/ml, pH 7.0, 50° C., after 23 hours): 80%; consumption rate relative to the charged L-lysine ([4]; substrate 500 mmol/L, after 35 hours): 87%; consumption rate relative to the charged L-lysine ([4]; substrate 750 mmol/L, after 35 hours): 92%; consumption rate relative to the charged L-lysine ([4]; substrate 1,000 mmol/L, after 57 hours): 94%; charged L-lysine consumed ([5]; pH 6.0, 55° C.): 96%; charged L-lysine consumed ([5]; pH 7.0, 55° C.): 98% |

Reference: US10266857B2, “Method for producing Nε-acyl-L-lysine” (AJINOMOTO CO., INC., priority 2015, dated 2019)
